Laboratory results reported in patent publication US8492582B2, “N-acyl anthranilic acid derivative or salt thereof” (Toyama Chemical Co., Ltd., priority 2009, dated 2013).
Where a name gives a salt, the structure may show the parent alone. Read-outs that look alike come from different tables or passages of the source.

Test system: type I collagen α1 chain mRNA in WI-38 cells
Test: Type I collagen α1 chain mRNA expression inhibition test
Assay type: cell-based
Conditions: Homo sapiens, read-out: Inhibition rate (%) at 10 μmol/L
Method: Human embryonic lung fibroblast cell line WI-38 cells were suspended in a Dulbecco's modified Eagle's medium containing 10% fetal calf serum, and 7.5×10^4 cells were inoculated on a 12-well plate and cultured for 3 days, or 1.5×10^5 cells were inoculated and cultured for 2 days. After the growth of the cells to a subconfluent state, the culture medium was changed to a Dulbecco's modified Eagle's medium containing 0.4% fetal calf serum and 50 μg/mL ascorbic acid, and the cells were further cultured for 24 hours. Then, a test compound was added thereto, and, one hour later, TGF-β1 was added at a final concentration of 1 ng/mL. Twenty-four hours after the addition, the total RNA was extracted from the cells using an RNA extraction kit (SV Total RNA Isolation System, Promega), and cDNA was synthesized using a reverse transcriptase (ReverTra Ace, TOYOBO). The expression level of the type I collagen al chain mRNA was analyzed with a real-time PCR instrument (ABI PRISM 7700 Sequence Detection System, Applied Biosystems) by a real-time PCR method using a premix reagent of real-time PCR (SYBR Premix Ex Taq or SYBR Premix Ex Taq II (Perfect Real Time), TaKaRa). A PCR reaction was conducted with diluted cDNA as a template, using primers specific for a type I collagen α1 chain gene or a GAPDH gene as an internal standard, and the reaction product was measured. The PCR reaction was conducted by incubation at 95° C. for 10 seconds and 45 cycles of denaturation at 95° C. for 5 seconds and annealing/extension at 60° C. for 30 seconds. The expression level of the type I collagen α1 chain mRNA was corrected with GAPDH and was expressed as a relative value when the expression level obtained in the absence of the test compound was defined as 100%.

[1] = 10 μmol/L test compound, WI-38 cells, TGF-β1 1 ng/mL, 24 hours, Table 4a

Row | Structure (SMILES) | inhibition at 10 µM [1] | inhibition at 10 µM (WI-38, 24 h)
1 | CCN1CCC(c2ccc(O)c(C(=O)Nc3cc(-c4ccccc4)ccc3C(=O)O)c2)CC1 [222a, 2-(5-(1-ethylpiperidin-4-yl)-2-hydroxybenzamido)-4-phenylbenzoic acid] | 85% | –
2 | O=C(Nc1cc(-c2ccccc2)ccc1C(=O)O)c1cc(C2CCN(CCO)CC2)ccc1O [225a, 2-(2-hydroxy-5-(1-(2-hydroxyethyl)piperidin-4-yl)benzamido)-4-phenylbenzoic acid] | 86% | –
3 | O=C(Nc1cc(-c2ccccc2)ccc1C(=O)O)c1cc(Cl)ccc1O [Example 2a, 2-(5-Chloro-2-hydroxybenzamido)-4-phenylbenzoic acid] | 99% | –
4 | Cc1ccc(O)c(C(=O)Nc2cc(-c3ccccc3)ccc2C(=O)O)c1 [Example 4a, 2-(2-Hydroxy-5-methylbenzamido)-4-phenylbenzoic acid] | 97% | –
5 | COc1ccc(C(=O)Nc2cc(-c3ccccc3)ccc2C(=O)O)c(O)c1 [Example 6a, 2-(2-Hydroxy-4-methoxybenzamido)-4-phenylbenzoic acid] | 95% | –
6 | COc1ccc(O)c(C(=O)Nc2cc(-c3ccccc3)ccc2C(=O)O)c1 [Example 7a, 2-(2-Hydroxy-5-methoxybenzamido)-4-phenylbenzoic acid] | 94% | –
7 | O=C(Nc1cc(-c2ccccc2)ccc1C(=O)O)c1ccc(-c2cccnc2)cc1O [Example 13a, sodium 2-(2-hydroxy-4-(pyridin-3-yl)benzamido)-4-phenylbenzoate] | – | 93%
8 | O=C(O)c1ccc(-c2ccccc2)cc1NC(=O)c1cccc(-c2cccnc2)c1O [Example 16a, Sodium 2-(2-hydroxy-3-(pyridin-3-yl)benzamido)-4-phenylbenzoate] | 80% | –
9 | O=C(Nc1cc(-c2ccccc2)ccc1C(=O)O)c1cc(-c2ccncc2)ccc1O [Example 19a, sodium 2-(2-hydroxy-5-(pyridin-4-yl)benzamido)-4-phenylbenzoate] | – | 83%
10 | O=C(Nc1cc(-c2ccccc2)ccc1C(=O)O)c1cc(-n2cccn2)ccc1O [Example 22a, 2-(2-hydroxy-5-(1H-pyrazol-1-yl)benzamido)-4-phenylbenzoic acid] | 97% | –
11 | O=C(Nc1cc(-c2ccccc2)ccc1C(=O)O)c1cc(-c2ccccn2)ccc1O [Example 27a, 2-(2-hydroxy-5-(pyridin-2-yl)benzamido)-4-phenylbenzoic acid] | 98% | –
12 | O=C(Nc1cc(-c2ccccc2)ccc1C(=O)O)c1cc(-c2ncccn2)ccc1O [Example 29a, 2-(2-hydroxy-5-(pyrimidin-2-yl)benzamido)-4-phenylbenzoic acid] | 90% | –
13 | O=C(Nc1cc(-c2ccccc2)ccc1C(=O)O)c1cc(-n2ccnc2)ccc1O [Example 34a, 2-(2-Hydroxy-5-(1H-imidazol-1-yl)benzamido)-4-phenylbenzoic acid hydrochloride] | 82% | –
14 | COc1ccccc1-c1ccc(C(=O)O)c(NC(=O)c2cc(-c3ccccn3)ccc2O)c1 [Example 35a, 2-(2-Hydroxy-5-(pyridin-2-yl)benzamido)-4-(2-methoxyphenyl)benzoic acid hydrochloride] | 90% | –
15 | COc1ccccc1-c1ccc(C(=O)O)c(NC(=O)c2cc(-c3cccnc3)ccc2O)c1 [Example 37a, 2-(2-hydroxy-5-(pyridin-3-yl)benzamido)-4-(2-methoxyphenyl)benzoic acid] | 94% | –
16 | Cc1cccc(C(=O)Nc2cc(-c3ccccc3)ccc2C(=O)O)c1O [Example 41a, 2-(2-hydroxy-3-methylbenzamido)-4-phenylbenzoic acid] | 99% | –
17 | O=C(Nc1cc(-c2ccco2)ccc1C(=O)O)c1cc(-c2cccnc2)ccc1O [Example 44a, sodium 4-(furan-2-yl)-2-(2-hydroxy-5-(pyridin-3-yl)benzamido)benzoate] | – | 89%
18 | O=C(Nc1cc(-c2ccoc2)ccc1C(=O)O)c1cc(-c2cccnc2)ccc1O [Example 46a, sodium 4-(furan-3-yl)-2-(2-hydroxy-5-(pyridin-3-yl)benzamido)benzoate] | – | 91%
19 | CN1CCC(c2ccc(O)c(C(=O)Nc3cc(-c4ccccc4)ccc3C(=O)O)c2)CC1 [Example 50a, 2-(2-hydroxy-5-(1-methylpiperidin-4-yl)benzamido)-4-phenylbenzoic acid] | 75% | –

Row | Structure (SMILES) | inhibition at 10 µM [1] | inhibition at 10 µM (WI-38, 24 h)
20 | O=C(Nc1cc(-c2ccco2)ccc1C(=O)O)c1cc(N2CCCCC2)ccc1O [Example 65a, 4-(furan-2-yl)-2-(2-hydroxy-5-(piperidin-1-yl)benzamido)benzoic acid methanesulfonate] | 71% | –
21 | O=C(Nc1cc(-c2ccccc2)ccc1C(=O)O)c1cc(-c2ccco2)ccc1O [Example 68a, 2-(5-(furan-2-yl)-2-hydroxybenzamido)-4-phenylbenzoic acid] | 98% | –
22 | Nc1cccc(-c2ccc(O)c(C(=O)Nc3cc(-c4ccccc4)ccc3C(=O)O)c2)n1 [Example 73a, 2-(5-(6-aminopyridin-2-yl)-2-hydroxybenzamido)-4-phenylbenzoic acid] | 96% | –
23 | CN(C)c1ccc(O)c(C(=O)Nc2cc(-c3ccccc3)ccc2C(=O)O)c1 [Example 76a, 2-(5-(dimethylamino)-2-hydroxybenzamido)-4-phenylbenzoic acid hydrochloride] | 72% | –
24 | O=C(Nc1cc(-c2ccccc2)ccc1C(=O)O)c1cc(N2CCC2)ccc1O [Example 86a, 2-(5-(Azetidin-1-yl)-2-hydroxybenzamido)-4-phenylbenzoic acid hydrochloride] | 85% | –
25 | O=C(Nc1cc(-c2ccccc2)ccc1C(=O)O)c1cc(N2CCSCC2)ccc1O [Example 89a, 2-(2-hydroxy-5-(thiomorpholin-4-yl)benzamido)-4-phenylbenzoic acid] | 98% | –
26 | CN1CCN(c2ccc(O)c(C(=O)Nc3cc(-c4ccccc4)ccc3C(=O)O)c2)CC1 [Example 92a, 2-(2-hydroxy-5-(4-methylpiperazin-1-yl)benzamido)-4-phenylbenzoic acid dimethanesulfonate] | 84% | –
27 | CN(CCN1CCCC1)c1ccc(O)c(C(=O)Nc2cc(-c3ccccc3)ccc2C(=O)O)c1 [Example 95a, sodium 2-(2-hydroxy-5-(methyl(2-(pyrrolidin-1-yl)ethyl)amino)benzamido)-4-phenylbenzoate] | – | 88%
28 | CN(C)CCN(C)c1ccc(C(=O)Nc2cc(-c3ccccc3)ccc2C(=O)O)c(O)c1 [Example 97a, sodium 2-(4-((2-(dimethylamino)ethyl)(methyl)amino)-2-hydroxybenzamido)-4-phenylbenzoate] | – | 83%
29 | O=C(Nc1cc(-c2ccccc2)ccc1C(=O)O)c1ccc(N2CCCCC2)cc1O [Example 100a, 2-(2-hydroxy-4-(piperidin-1-yl)benzamido)-4-phenylbenzoic acid] | 99% | –
30 | CCN(CC)CCN(C)c1ccc(O)c(C(=O)Nc2cc(-c3ccccc3)ccc2C(=O)O)c1 [Example 102a, 2-(5-((2-(Diethylamino)ethyl)(methyl)amino)-2-hydroxybenzamido)-4-phenylbenzoic acid] | 89% | –
31 | CCN(CCN(C)C)c1ccc(O)c(C(=O)Nc2cc(-c3ccccc3)ccc2C(=O)O)c1 [Example 104a, 2-(5-((2-(Dimethylamino)ethyl)(ethyl)amino)-2-hydroxybenzamido)-4-phenylbenzoic acid] | 92% | –
32 | CN(C)CCOc1ccc(O)c(C(=O)Nc2cc(-c3ccccc3)ccc2C(=O)O)c1 [Example 109a, 2-(5-(2-(Dimethylamino)ethoxy)-2-hydroxybenzamido)-4-phenylbenzoic acid hydrochloride] | 91% | –
33 | O=C(Nc1cc(-c2ccccc2)ccc1C(=O)O)c1cc(Oc2ccccc2)ccc1O [Example 115a, 2-(2-hydroxy-5-phenoxybenzamido)-4-phenylbenzoic acid] | 98% | –
34 | CNC1CCN(Cc2ccc(O)c(C(=O)Nc3cc(-c4ccccc4)ccc3C(=O)O)c2)CC1 [Example 126a, 2-(2-Hydroxy-5-((4-(methylamino)piperidin-1-yl)methyl)benzamido)-4-phenylbenzoic acid dimethanesulfonate] | 79% | –
35 | CN(C)CCN(C)Cc1ccc(O)c(C(=O)Nc2cc(-c3ccccc3)ccc2C(=O)O)c1 [Example 134a, 2-(5-(((2-(dimethylamino)ethyl)(methyl)amino)methyl)-2-hydroxybenzamido)-4-phenylbenzoic acid] | 90% | –
36 | CN1CCN(CCCOc2ccc(O)c(C(=O)Nc3cc(-c4ccccc4)ccc3C(=O)O)c2)CC1 [Example 141a, 2-(2-hydroxy-5-(3-(4-methylpiperazin-1-yl)propoxy)benzamido)-4-phenylbenzoic acid dimethanesulfonate] | 92% | –
37 | O=C(Nc1cc(-c2ccccc2)ccc1C(=O)O)c1cc(OCCN2CCNCC2)ccc1O [Example 144a, 2-(2-hydroxy-5-(2-(piperazin-1-yl)ethoxy)benzamido)-4-phenylbenzoic acid dimethanesulfonate] | 96% | –
